Measurements as given in patent US20090305225A1, “Inhibition of Creatine Uptake to Promote Weight Loss” (priority 2005, published 2009).

Experiments:
[1] = test system: Fos (c-fos protein); assay: Fos immunohistochemistry of hypothalamic sections 4 hours after icv injection; type: in vivo, rat; settings: 4 hours after icv 2 mg per rat, especially around the III ventricles
Protocol: In experiments involving immunohistochemistry, animals were injected icv with beta-GPA or with vehicle. Four hours after injection, animals were anesthetized with halothane and perfused through the left ventricle of the heart, initially with oxygenated Krebs buffer and then with ˜350 ml of 4% paraformaldehyde in 0.1M NaCl, pH 7.4 phosphate buffered saline (PBS). Brains were extracted from the skull, hypothalamic blocks dissected (by coronal cuts anterior and posterior to hypothalamic landmarks) and post-fixed in 4% paraformaldehyde solution at 4 degrees C. overnight. The following day, the blocks were transferred to 30% sucrose and incubated overnight at 4 degrees C. After freezing in Optimum Cutting Temperature (OCT) compound (Sakura, Japan), blocks were sectioned coronally at 40 um on a cryostat and sections individually floated in multi-well dishes filled with PBS. Sections were treated for 30 minutes with 0.4% Triton detergent in potassium PBS to aid in antibody penetration. Primary antibodies were added, the plates shaken gently for 1 hour at room temperature, then incubated at 4 degrees C. for 72 hours. Sections were then brought to room temperature while shaking and the primary antibody solution was removed by washing 3 times with PBS buffer. After removal of the last wash, the secondary antibody solution was added and the plates incubated for 2 hours at room temperature in the dark. Removal of the second antibody was achieved by washing three times with PBS buffer prior to mounting on subbed slides. They were allowed to dry, rewetted with PBS buffer and cover-slipped with Citifluor (Ted Pella, Reading, Calif.).
Fos studies were performed using indirect fluorescence visualization. The method utilized rabbit c-Fos-AB5 (1:2,000; Oncogene Research Products, Cambridge, Mass.) with goat anti-rabbit Cy3 (1:500; Jackson Immuno Research Laboratories, West Grove, Pa.) as the secondary antibody. […] Staining observed in experimental tissue was compared to that observed from experiment-matched negative controls. […] Immunoreactive Fos (Fos IR) was quantified by capturing images at 10× using MagnaFire 2.0 Software. These images were imported into the Metamorph 6.1 Software package and density of staining measured using Hue Saturation Intensity. Regions outlining nuclei were hand drawn with an electric pen and the total areas and stained areas measured to yield percentages of total areas with specific Fos-IR. The values for left and right dorsomedial nuclei in each rat were averaged, and the averages used to calculate means. In the case of the III ventricle, the entire image was used for quantification prior to calculating the percentage of the area with Fos-IR.

[2] = Body weight and food intake after icv administration of beta-GPA in rats; type: in vivo, rat
Protocol: (§1) All animal handling was approved by and done in accordance with the guidelines and requirements of the University of Vermont Institutional Animal Care Use Committee. Adult male Sprague-Dawley rats (mycoplasma free; 200 g) were purchased from Charles River (Quebec, Canada) and housed in an air-conditioned (23+1 degree C.) room with lights on for 12 hours daily (starting at 6:00 a.m.) in the University of Vermont Animal Facility. Rats were housed singly in regular cages with free access to Purina Rat Chow (RMH 3000) and water for at least five days prior to surgery. Stereotactic surgery was used to implant chronic indwelling stainless steel cannulae into the third ventricle of the brain under fentanyl/droperidol anesthesia. Coordinates for cannula placement were obtained from the Konig Klippel stereotactic surgery atlas; with the nose bar 2.4 mm below the intraaural line and the vertical micrometer gantry tilted 9 degrees towards the animal, the coordinates were 4.9 mm dorsal to the intraaural line, 5 mm anterior to the intraaural line and 1.1 mm lateral to the midline. A minimum of 5 days later, animals were injected icv with beta-GPA (which was dissolved in saline at 50 degrees C. and the pH adjusted to 7.2-7.4 with dilute HCl) or other experimental compounds at the indicated concentrations. Control animals received equal volumes of vehicle. Volumes of icv injections never exceeded 10 ul per animal and were administered over 5-10 seconds. In some experiments, animals received two or more icv injections on the same or different days. Measures of body weight were made daily with a digital balance with a 6 second integration period to minimize the effects of animal movement. For experiments involving measurement of food intake, after stereotactic surgery animals were housed in individual Nalgene metabolic cages and given additional time for acclimation to the cage and feeding system. Food intakes were measured using powdered rat chow with daily weigh-backs as indicated.

[3] = test system: creatine transporter (CrT) mRNA; assay: Real-Time PCR of creatine transporter mRNA in hypothalami of beta-GPA-treated rats; type: in vivo, rat; settings: hypothalamus, normalized to L32 mRNA, not statistically significant, FIG. 4
Protocol: RNA was purified with […] (Promega) at 37 degrees C. for 30 min. The first strand of cDNA was synthesized by adding 1 ug of purified RNA from each sample to 20 ul containing MMLV reverse transcriptase (Invitrogen Life Tech). Creatine transporter (CrT) gene expression was further quantatified by Real-Time PCR using sense primer: 5′GGTAAGGGTGCAA GCCTTTG′ (SEQ ID NO: 1); antisense primer: 5′[…]-3′ (SEQ ID NO:2) and TaqMan probe: 5′[…]-3′ (SEQ ID NO: 3) (MMG-Biotech). The rat ribosomal protein L32 gene was used as a loading control. 1 ul of each cDNA sample derived from the 20 ul reverse transcription reaction and 1 ug RNA template was mixed with 24 ul master mixture (Perkin Elmer) in a 96-well TaqMan plate. The PCR was run in an ABI prism 7700 thermocycler (Applied Biosystems) at 50 degrees C. for 2 min and 95 degrees C. for 10 min, followed by 95 degrees C. for 15 sec and 60 degrees C. for 1 min for 40 cycles. The data were analyzed using software supplied with the ABI prism 7700.

[4] = type: physicochemical
Protocol: as §1, with “Control animals received equal volumes of vehicle. Volumes of icv injections never exceeded 10 ul per animal and were administered over 5-10 seconds. In some experiments, animals received two or more icv injections on the same or different days. Measures of body weight were made daily with a digital balance with a 6 second integration period to minimize the effects of animal movement. For experiments involving measurement of food intake, after stereotactic surgery animals were housed in individual Nalgene metabolic cages and given additional time for acclimation to the cage and feeding system.” left out, “indicated. […]” for “indicated.”

[5] = icv 1 mg, 2 mg or 3 mg per animal, FIG. 2
[6] = icv 2 mg/rat, single dose, FIG. 1

Compound: N=C(N)NCCC(=O)O [beta-GPA, 3-guanidopropionic acid]
- Fos IR [1]: increased
- body weight [2, 5]: decreased in a dose-dependent fashion
- food intake [2, 5]: decreased in a dose-dependent fashion
- time until body weight and food intake returned to values indistinguishable from vehicle-treated animals ([2]; icv 2 mg/rat, single dose): four
- body weight [2, 6]: modest decreases
- food intake [2, 6]: modest decreases
- effect of icv dose (body weight and food intake) ([2]; icv, 0.04 mg, five-fold lower dose, dose-ranging study): without effect
- magnitude of body weight and food intake effects after a second identical dosage ([2]; second icv dose seven days after the first, FIG. 2): enhanced considerably
- relative units of CrT gene expression versus vehicle-treated animals [3]: slight decrease
- usability of a five-fold greater icv dose (10 mg) [4]: not usable because of solubility dictates
